Consider one sequence from patent publication US7629439B2, “Peptides derived from the protein MMP-2, and the use thereof in antitumoral immunotherapy” (INSERM (Institut National de la Sante et de la Recherche …, priority 2003, dated 2009).

This assay relates to T2 cells. Kind of assay: 51Cr release: sensitization of T2 cells to lysis by CTL clone M134.12. The class given is cell-based. To be noted: 51Cr-labeled T2 cells, 60 minutes at 37° C. with peptide, effector/target ratio 10/1, 4 hours; compared among four peptides (FIG. 4). As for the experimental part:
These peptides were used to sensitize T2 cells labeled with ^51Cr. These cells were incubated for 60 minutes at 37° C. with various concentrations of each of the peptides to be tested. CTL M134.12 effector cells were then added at an effector cell/target cell ratio of 10/1. The amount of ^51Cr released into the supernatant is measured 4 hours later.
Along the y-axis, the percentage specific lysis.
Along the x-axis, the concentration of peptide LGLPPDVQRV (●) (SEQ ID NO: 2), GLPPDVQRV (▪) (SEQ ID NO: 1), LPPDVQRV (▴) (SEQ ID NO: 3), or GLPPDVQR(X) (SEQ ID NO: 4) in nM.

As to “GLPPDVQRV (listed as Homo sapiens) [peptide derived from region 556-593 of the MMP-2 protein, presented by HLA-A*0201]”, the “sensitizing T2 cells to lysis by the CTL clone M134.12 (percentage specific lysis)” value is “most effective”.
